Columns and labels:
[1] = reference 14; cited from earlier work
[2] = tested on: de novo sphingolipid biosynthesis; experiment: [14C]sphingosine biosynthesis by hepatocytes isolated from rats given fumonisin B1 by gavage; format: in vivo, rat; conditions: 5 mg/200 g body weight by gavage for 2 days
serum sphingolipids [3] = experiment: long-chain bases liberated from total serum lipids by acid hydrolysis, ponies fed fumonisin; format: in vivo, pony
Text: (§1) Feeding protocols—Clinically normal ponies of varying age and sex were conditioned on the control diet for 21 days prior to the trial. Horse 341 was a 6 year old gelding (173-193 Kg), 299 was a 12 year old mare (205-215 Kg), 164 was a 12 year old mare (206-290 Kg) and 166 was a 16 year old mare (143-164 Kg). During the conditioning period and throughout the trial, all ponies received alfalfa hay by free choice. The test groups were fed varying levels of fumonisin (15 to 44 ppm) for varying lengths of time.
(§2) Analysis of serum long-chain bases—Blood was drawn approximately twice a week, centrifuged to obtain serum, and aliquots were frozen for analyses of free sphingosine and sphinganine by HPLC as is known in the art as described in (28). To quantitate total sphingolipids in some samples, the extracts were acid hydrolyzed before preparing the samples for HPLC.

serum sphingolipids [4] = experiment: free long-chain bases in sera of ponies fed fumonisin-contaminated feed; format: in vivo, pony; conditions: for serum sphinganine / serum sphingosine: pony 341, 22 ppm
Procedure: Materials—Corn screenings were ground in a Romer Mill (Romer Labs, Chesterfield, Mo.) and mixed thoroughly. Samples were taken from each lot and analyzed for fumonisins by high-performance liquid chromatography (HPLC) and thin-layer chromatography as is known in the art as previously described in (15). […] Using the mean fumonisin B1 level, individual rations were prepared daily by adding the corn screenings to pellets (NADC Horse Ration, Code 560, Purina Mills, St. Louis, Mo.) and molasses (Promolas Easy Mixer supreme, Pacific Molasses Co., San Francisco, Calif.) to yield the fumonisin concentrations cited in the text. In general, the ration contained 60% pellets, 10% molasses, and 30% corn screenings. The control diet consisted of pellets plus molasses.
as §1, §2

ceramide synthase = experiment: in vitro assay of ceramide synthase, rat liver microsomes; format: biochemical; conditions: inhibition may be biphasic (FIG. 5), read-out: apparent IC50 for inhibition of ceramide synthase in vitro
Procedure: In vitro assays of serine palmitoyltransferase and ceramide synthase. A microsomal fraction was isolated from rat liver and assayed for serine palmitoyltransferase, as is known in the art as described in (24,29), and ceramide synthase, as is known in the art as described in (30), in the presence of varying concentrations of fumonisin B1. […] The reaction was initiated by adding palmitoyl-CoA and, after incubation at 37° C. for 15 min, the products were extracted, resolved by TLC, and quantitated as described above. Background counts were subtracted using data from identical assays that omitted palmitoyl-CoA.

[5] = Pony 208, fumonisin feed (level not given), day 2
[6] = Pony 208, fumonisin feed (level not given), day 6
[7] = Pony 208, fumonisin feed (level not given), day 10
[8] = Pony 208, fumonisin feed (level not given), day 13
[9] = pony #212, initially 44 ppm, by 7 days

## CCCC[C@@H](C)[C@@H](OC(=O)C[C@@H](CC(=O)O)C(=O)O)[C@H](C[C@@H](C)C[C@H](O)CCCC[C@@H](O)C[C@H](O)[C@H](C)N)OC(=O)C[C@@H](CC(=O)O)C(=O)O [fumonisin B1]
[1]
  tumor promotion: promotion of liver tumors
[2]
  ratio of free [14C]sphingosine to [14C]sphinganine: 0.5±0.1
Serum sphingolipids [3]; Pony 164, feed 44 ppm, day 2
  Sphinganine Total (acid hydrolysis of serum lipids): 169 ± 30 pmol/mL
  Sphinganine Total (−free): 99 pmol/mL
  Sphingosine Total (acid hydrolysis of serum lipids): 621 ± 99 pmol/mL
  Sphingosine Total (−free): 504 pmol/mL
Serum sphingolipids [3]; Pony 164, feed 44 ppm, day 7
  Sphinganine Total (acid hydrolysis of serum lipids): 156 pmol/mL
  Sphinganine Total (−free): 0 pmol/mL
  Sphingosine Total (acid hydrolysis of serum lipids): 254 ± 32 pmol/mL
  Sphingosine Total (−free): 102 pmol/mL
Serum sphingolipids [3]; Pony 164, feed 44 ppm, day 10
  Sphinganine Total (acid hydrolysis of serum lipids): 786 ± 234 pmol/mL
  Sphinganine Total (−free): 503 pmol/mL
  Sphingosine Total (acid hydrolysis of serum lipids): 2960 ± 585 pmol/mL
  Sphingosine Total (−free): 2740 pmol/mL
Serum sphingolipids [3]; Pony 166, feed 44 ppm, day 2
  Sphinganine Total (acid hydrolysis of serum lipids): 131 ± 40 pmol/mL
  Sphinganine Total (−free): 94 pmol/mL
  Sphingosine Total (acid hydrolysis of serum lipids): 1020 ± 313 pmol/mL
  Sphingosine Total (−free): 974 pmol/mL
Serum sphingolipids [3]; Pony 166, feed 44 ppm, day 7
  Sphinganine Total (acid hydrolysis of serum lipids): 206 ± 18 pmol/mL
  Sphinganine Total (−free): 144 pmol/mL
  Sphingosine Total (acid hydrolysis of serum lipids): 950 ± 154 pmol/mL
  Sphingosine Total (−free): 985 pmol/mL
Serum sphingolipids [3]; Pony 166, feed 44 ppm, day 10
  Sphinganine Total (acid hydrolysis of serum lipids): 212 ± 28 pmol/mL
  Sphinganine Total (−free): 34 pmol/mL
  Sphingosine Total (acid hydrolysis of serum lipids): 634 ± 192 pmol/mL
  Sphingosine Total (−free): 540 pmol/mL
Serum sphingolipids [3]; Pony 166, feed 44 ppm, day 13
  Sphinganine Total (acid hydrolysis of serum lipids): 823 ± 54 pmol/mL
  Sphinganine Total (−free): 650 pmol/mL
  Sphingosine Total (acid hydrolysis of serum lipids): 1740 ± 150 pmol/mL
  Sphingosine Total (−free): 1640 pmol/mL
Serum sphingolipids [3]; [5]
  Sphinganine Total (acid hydrolysis of serum lipids): 387 ± 26 pmol/mL
  Sphinganine Total (−free): 107 pmol/mL
  Sphingosine Total (acid hydrolysis of serum lipids): 3490 ± 358 pmol/mL
  Sphingosine Total (−free): 3190 pmol/mL
Serum sphingolipids [3]; [6]
  Sphinganine Total (acid hydrolysis of serum lipids): 718 ± 75 pmol/mL
  Sphinganine Total (−free): 60 pmol/mL
  Sphingosine Total (acid hydrolysis of serum lipids): 2390 ± 388 pmol/mL
  Sphingosine Total (−free): 2030 pmol/mL
Serum sphingolipids [3]; [7]
  Sphinganine Total (acid hydrolysis of serum lipids): 2040 ± 70 pmol/mL
  Sphinganine Total (−free): 200 pmol/mL
  Sphingosine Total (acid hydrolysis of serum lipids): 4450 ± 10 pmol/mL
  Sphingosine Total (−free): 3460 pmol/mL
Serum sphingolipids [3]; [8]
  Sphinganine Total (acid hydrolysis of serum lipids): 9990 ± 379 pmol/mL
  Sphinganine Total (−free): 9604 pmol/mL
  Sphingosine Total (acid hydrolysis of serum lipids): 15970 ± 1576 pmol/mL
  Sphingosine Total (−free): 15040 pmol/mL
Serum sphingolipids [4]; Pony #164, feed 44 ppm, day 2
  Ratio Sa/So: 0.60
  Sphinganine, free, serum: 70.2 ± 4.2 pmol/mL
  Sphingosine, free, serum: 117 ± 7 pmol/mL
Serum sphingolipids [4]; Pony #164, feed 44 ppm, day 7
  Ratio Sa/So: 1.67
  Sphinganine, free, serum: 253 ± 22 pmol/mL
  Sphingosine, free, serum: 152 ± 13 pmol/mL
Serum sphingolipids [4]; Pony #164, feed 44 ppm, day 10
  Ratio Sa/So: 1.25
  Sphinganine, free, serum: 283 ± 18 pmol/mL
  Sphingosine, free, serum: 226 ± 20 pmol/mL
Serum sphingolipids [4]; Pony #166, feed 44 ppm, day 2
  Ratio Sa/So: 0.87
  Sphinganine, free, serum: 37.2 ± 0.2 pmol/mL
  Sphingosine, free, serum: 43 ± 6 pmol/mL
Serum sphingolipids [4]; Pony #166, feed 44 ppm, day 7
  Ratio Sa/So: 0.95
  Sphinganine, free, serum: 62 ± 8 pmol/mL
  Sphingosine, free, serum: 66 ± 16 pmol/mL
Serum sphingolipids [4]; Pony #166, feed 44 ppm, day 10
  Ratio Sa/So: 1.92
  Sphinganine, free, serum: 179 ± 8 pmol/mL
  Sphingosine, free, serum: 92 ± 4 pmol/mL
Serum sphingolipids [4]; Pony #166, feed 44 ppm, day 13
  Ratio Sa/So: 1.72
  Sphinganine, free, serum: 174 ± 18 pmol/mL
  Sphingosine, free, serum: 100 ± 8 pmol/mL
Serum sphingolipids [4]; pony 164, 44 ppm, day 2
  increase in serum sphinganine versus level immediately prior to feeding: 6 fold
  ratio of sphinganine to sphingosine versus pre-feeding: doubled
Serum sphingolipids [4]; pony 164, 44 ppm, day 7
  increase in serum sphinganine versus initial level: 22 fold
  serum sphingosine versus initial level: 3.6 fold
Serum sphingolipids [4]; pony 166, 44 ppm, day 2
  increase in serum sphinganine: 2.7 fold
Serum sphingolipids [4]; pony 166, 44 ppm, day 10
  elevation in serum sphinganine: 13 fold
  elevation in serum sphingosine: 2 fold
Serum sphingolipids [4]; day 231
  serum sphinganine: 256 pmol/mL
  serum sphingosine: 163 pmol/mL
Serum sphingolipids [4]; day 235
  serum sphinganine: 532 pmol/mL
  serum sphingosine: 418 pmol/mL
Serum sphingolipids [4]; pony 341, reintroduction of 22 ppm on day 182
  sphinganine to sphingosine ratio: > 1.5
Serum sphingolipids [4]; [9]
  further increase of serum sphingosine versus day 2: 2 fold
  serum sphinganine versus level at day 2: 6.7 fold
  sphinganine exceeding level of sphingosine: 1.9 fold
Serum sphingolipids [4]; pony #212, initially 44 ppm, within 2 days
  serum sphingosine level: 147 ± 5 pmol
Serum sphingolipids [4]; pony #341, 15 ppm, first 130 days
  ratio of sphinganine to sphingosine: fairly consistent elevation over the initial value
Ceramide synthase
  IC50: ~100 nM

Source: patent publication US6720184B1, “Method of altering sphingolipid metabolism and detecting fumonisin ingestion and contamination” (Emory University, priority 1991, dated 2004)
